Measurements: ChEMBL document CHEMBL5543106, “Fragment growth-based discovery of novel TNIK inhibitors for the treatment of colorectal cancer” (Eur J Med Chem, 2024)

How the values were obtained:
Format in all cases: ADME, organism-based
[1] = Cmax in BALB/c mouse at 10 mg/kg, po measured upto 24 hrs by LC-MS/MS analysis; conditions: in vivo
[2] = Apparent volume of distribution in BALB/c mouse at 5 mg/kg, iv measured upto 24 hrs by LC-MS/MS analysis; conditions: in vivo, read-out: Vz
[3] = Tmax in BALB/c mouse at 10 mg/kg, po measured upto 24 hrs by LC-MS/MS analysis; conditions: in vivo
[4] = MRT(0 to t) in BALB/c mouse at 5 mg/kg, iv measured upto 24 hrs by LC-MS/MS analysis; conditions: in vivo
[5] = Tmax in BALB/c mouse at 5 mg/kg, iv measured upto 24 hrs by LC-MS/MS analysis; conditions: in vivo
[6] = Apparent volume of distribution in BALB/c mouse at 10 mg/kg, po measured upto 24 hrs by LC-MS/MS analysis; conditions: in vivo
[7] = AUC(0 to t) in BALB/c mouse at 5 mg/kg, iv measured upto 24 hrs by LC-MS/MS analysis; conditions: in vivo
[8] = Bioavailability in BALB/c mouse at 5 mg/kg, iv measured upto 24 hrs by LC-MS/MS analysis; conditions: in vivo
[9] = Cmax in BALB/c mouse at 5 mg/kg, iv measured upto 24 hrs by LC-MS/MS analysis; conditions: in vivo
[10] = AUC(0 to t) in BALB/c mouse at 10 mg/kg, po measured upto 24 hrs by LC-MS/MS analysis; conditions: in vivo
[11] = MRT(0 to t) in BALB/c mouse at 10 mg/kg, po measured upto 24 hrs by LC-MS/MS analysis; conditions: in vivo

Cmax [1]: 5250 ng/mL | Vd [2]: 0.846 L/kg | Tmax [3]: 1.17 h | MRT last at 24 h [4]: 4.46 h | Tmax [5]: 4.98 min | Vz [6]: 1.41 L/kg | AUC(0-t) at 24 h [7]: 27000 ng·h/mL | bioavailability [8]: 84.6% | Cmax [9]: 6340 ng/mL | AUC(0-t) at 24 h [10]: 45700 ng·h/mL | MRT last at 24 h [11]: 6.11 h
Compound: Cn1cnc(-c2ccc(F)cc2)c1-c1ccc2ncc(C#CC(C)(C)O)cc2c1
